Data: patent US5595999A, “Guanidine derivatives” (Hoffmann-La Roche Inc., priority 1990, dated 1997)

Key:
human thrombin = human thrombin (Homo sapiens, UniProt P00734); experiment: Inhibition of amidolytic activity of thrombin (chromogenic substrate S-2238); format: biochemical; details: human thrombin 0.5 nM final conc., S-2238, pH 7.8, room temperature
Method: (§1) A differential inhibition of thrombin and other serine proteases by the above compounds is desirable in order to obtain compounds having as high a specificity as possible and at the same time to avoid possible side-effects.
(§2) Specific chromogenic peptide substrates can be used to determine the inhibition of the catalytic activity of the above proteases. The inhibition of the amidolytic activity of thrombin and trypsin by the above guanidines was determined as described hereinafter.
(§3) The measurements were carried out on microtiter plates at room temperature. For this, in each well of the plate 150 μl of buffer (50 mM Tris, 100 mM NaCl, 0.1% polyethylene glycol; pH 7.8) were mixed with 50 μl of the inhibitor dissolved in DMSO and diluted in the buffer, and 25 μl of human thrombin (0.5 nM final conc.) were added. After incubation for 10 minutes, the reaction was started by the addition of chromogenic substrate S-2238 (H-D-Phe-Pip-Arg-paranitroaniline from Kabivitrum; 10 or 50 μm final conc.) and the hydrolysis of the substrate was followed spectrophotometrically on a kinetic microliter plate reader for 5 minutes. After graphical presentation of the inhibition curves, the Ki values were determined according to the method described in Biochem. J. 55, 1955, 170-171. The inhibition of trypsin was effected analogously, but using the substrate S-2251 (H-D-Val-Leu-Lys-paranitroaniline) in 200 and 750 μM final concentration.

trypsin = experiment: Inhibition of amidolytic activity of trypsin (chromogenic substrate S-2251); format: biochemical; details: S-2251, 200 and 750 μM final concentration, pH 7.8, room temperature
Method: as §1, §2, §3

[1] = Toxicity in mice upon intravenous administration; details: mouse, in vivo
Method: The guanidines of formula I have a low toxicity. Thus, the products of Example 8, 13a, 14i and 18f have an LD50 of 30-50mg/kg in mice upon intravenous administration.

Row | Structure (SMILES) | Ki (human thrombin) [nM] | Ki (trypsin) [nM] | LD50 [1] [mg/kg]
1 | N=C(N)N1CCC[C@@H](CNC(=O)[C@@H](Cc2ccc([N+](=O)[O-])cc2)NS(=O)(=O)c2ccc(I)cc2)C1 [Example 17j, (R)-N-[(S)-1-Amidino-3-piperidinylmethyl]-α-(p-iodo-benzenesulfonamido)-p-nitrohydrocinnamamide] | 26.1 | 14800 | –
2 | N=C(N)N1CCC[C@@H](COC(=O)[C@@H](Cc2c[nH]c3ccccc23)NS(=O)(=O)c2ccc(I)cc2)C1 [Example 17c, N-(p-Iodophenylsulfonyl)-D-tryptophan (R)-1-amidino-3-piperidinylmethyl ester] | 58 | 10000 | –
3 | N=C(N)N1CCCC(CNC(=O)[C@@H](Cc2c[nH]c3ccccc23)NS(=O)(=O)c2ccccc2[N+](=O)[O-])C1 (mixture of isomers) [Example 14i, (R)-N-[(RS)-1-Amidino-3-piperidinylmethyl]-α-(o-nitrobenzenesulfonamido)indole-3-propionamide] | 25 | 38000 | 30 to 50
4 | N=C(N)N1CCCC(CNC(=O)[C@@H](CN2C(=O)C(=O)c3ccccc32)NS(=O)(=O)c2ccc3ccccc3c2)C1 (some centres unmarked) [Example 8] | 8.55 | 20100 | 30 to 50
5 | N=C(N)N1CCC[C@@H](CNC(=O)[C@@H](Cc2ccc3ccccc3c2)NS(=O)(=O)c2ccc(I)cc2)C1 [Example 17f, (R)-N-[(S)-1-Amidino-3-piperidinylmethyl]-α-(p-iodobenzenesulfonamido)-2-naphthylpropionamide] | 41.3 | – | –
6 | N=C(N)N1CCCC(CNC(=O)[C@@H](CC(=O)c2ccccc2N)NS(=O)(=O)c2ccc3ccccc3c2)C1 (stereo partly drawn) [Example 18f, (R)-N-[(RS)-1-Amidino-3-piperidinylmethyl]-3-(o-aminobenzoyl)-2-(naphthylsulfonamido)propionamide] | 16 | – | 30 to 50
7 | N=C(N)N1CCC[C@@H](CNC(=O)[C@@H](Cc2c[nH]c3ccccc23)NS(=O)(=O)c2ccc(I)cc2)C1 [Example 17b, (R)-N-[(S)-1-Amidino-3-piperidinylmethyl]-α-(p-iodobenzenesulfonamido)indole-3-propionamide] | 20.7 | 6300 | –
8 | N=C(N)N1CCCC(CNC(=O)[C@@H](Cc2ccccc2)NS(=O)(=O)c2ccc3ccccc3c2)C1 (stereo partly drawn) [Example 9, (R)-N-[(RS)-1-amidino-3-piperidinylmethyl]-α-(2-naphthylsulfonamido)hydrocinnamide] | 135 | 169000 | –
9 | N=C(N)N1CCCC(CNC(=O)[C@@H](Cc2ccccc2[N+](=O)[O-])NS(=O)(=O)c2ccc3ccccc3c2)C1 (mixture of isomers) [Example 13a, (R)-N-[(RS)-1-Amidino-3-piperidinylmethyl]-α-(2-naphthylsulfonamido)-o-nitrohydrocinnamamide] | 20.8 | 29200 | 30 to 50
